Results reported in PubChem BioAssay (NCI).
Several values for one entry are separate records, joined by “and”; a condition that tells them apart may be missing. Equal values may be shown once.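 1) Cells in 96-well plates. 2) Compound, 48 h, 5 concentrations. 3) Linear interpolation between surrounding doses. 4) Unreached endpoint = highest concentration. GI50 marks 50% less growth. Definition used: TGI = concentration required for complete inhibition of growth.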

Tests used:
Test in all cases: growth of human tumour cells (NCI), 48 h
[1] = tested on: PC-3 prostate
[2] = tested on: OVCAR-5 ovarian
[3] = tested on: K-562 leukemia
[4] = tested on: SF-539 CNS
[5] = tested on: SW-620 colon
[6] = tested on: KM12 colon
[7] = tested on: SK-MEL-28 melanoma
[8] = tested on: RPMI-8226 leukemia
[9] = tested on: NCI-H522 lung
[10] = tested on: HCC-2998 colon

With `CCCC(=O)Nc1cc([N+](=O)[O-])c([N+](=O)[O-])cc1OC` the TGI [1] was > 100 µM, the TGI [2] was > 100 µM and the TGI [3] was > 100 µM. It also gave a TGI [4] of 37.8 µM, a TGI [5] of 89.9 µM and a TGI [6] of 27.2 µM. It also gave a TGI [7] of 32.2 µM, a TGI [8] of 68.4 µM and a TGI [9] of 27.6 µM.

`Cc1ccc(S(=O)(=O)N/N=C/c2oc(-c3ccccc3Cl)c(-c3ccccc3Cl)c2[N+](=O)[O-])cc1` was tested, and the TGI [2] was 34.2 µM, the TGI [10] was 47.9 µM and the TGI [3] was > 100 µM. The TGI [4] was 46.1 µM, the TGI [5] was > 100 µM and the TGI [6] was > 100 µM. The TGI [7] was 62.9 µM, the TGI [8] was 30.3 µM and the TGI [9] was 26 µM.

`Cc1ccc([N+](=O)[O-])cc1NC(=O)C(=O)Cc1cc(=O)oc2cc(O)ccc12` was tested, and the TGI [2] was > 100 µM, the TGI [10] was > 100 µM and the TGI [3] was > 100 µM. For the same molecule, the TGI [4] was > 100 µM, the TGI [6] was > 100 µM and the TGI [7] was > 100 µM. The TGI [8] was 75.3 µM and the TGI [9] was > 100 µM.

`O=C(Nc1ccc([N+](=O)[O-])cc1C(=O)O)c1ccc([N+](=O)[O-])cc1` was tested, and the TGI [2] was > 100 µM, the TGI [10] was > 100 µM and the TGI [3] was 32.3 µM. For the same molecule, the TGI [4] was > 100 µM, the TGI [5] was > 100 µM and the TGI [6] was 99.5 µM. The TGI [7] was > 100 µM and the TGI [8] was 57.7 µM.

`Cn1cnc([N+](=O)[O-])c1SC1=NCCS1` was tested, and the TGI [2] was > 100 µM, the TGI [10] was > 100 µM and the TGI [3] was > 100 µM. The TGI [4] was > 100 µM, the TGI [5] was > 100 µM and the TGI [6] was > 100 µM. The TGI [7] was > 100 µM, the TGI [8] was > 100 µM and the TGI [9] was 41.7 µM.

`COc1ccc2cc3[n+](cc2c1OC)CCc1cc2c(cc1-3)OCO2` was tested, and the GI50 [1] was 6.61 µM, the TGI [1] was > 100 µM and the TGI [2] was > 100 µM and 149 µM. For the same molecule, the GI50 [3] was 12.3 µM and 11 µM and 23.5 µM, the TGI [3] was > 100 µM and > 49.7 µM and 199 µM and the GI50 [4] was 18.1 µM. The TGI [4] was > 100 µM and 83.1 µM, the GI50 [5] was 14.8 µM and 25.2 µM and the TGI [5] was > 100 µM and > 73.8 µM and 170 µM. For the same molecule, the GI50 [6] was 2.79 µM and 4.27 µM, the GI50 [7] was 11.2 µM and 17.2 µM and the TGI [8] was > 100 µM.

`COC(=O)c1oc2c(O)c(OC)c(Br)cc2c1C` showed a GI50 [1] of 21.2 µM, a TGI [1] of 39.7 µM and a GI50 [3] of 34.4 µM. For the same molecule, the TGI [3] was > 100 µM, the GI50 [5] was 30.5 µM and the TGI [5] was 82.5 µM. The GI50 [6] was 21.2 µM, the TGI [6] was 47.6 µM and the GI50 [8] was 20.9 µM. For the same molecule, the TGI [8] was 47.8 µM, the GI50 [9] was 37.4 µM and the TGI [9] was > 100 µM.

`CC1CC(C)/C(=N/NC(N)=O)C(C(O)CC2CCC(=O)NC2=O)C1` (centres undefined) was tested, and the GI50 [1] was 4.1 µM, the TGI [1] was > 100 µM and the GI50 [2] was 3.73 µM. The TGI [2] was 86.2 µM, the GI50 [10] was 5.07 µM and the TGI [10] was > 100 µM. The GI50 [4] was 3.07 µM, the TGI [4] was 39.8 µM and the GI50 [5] was 2.9 µM. For the same molecule, the TGI [5] was > 100 µM, the GI50 [6] was 3.05 µM and the TGI [6] was 42.4 µM. The GI50 [7] was 3.91 µM, the TGI [7] was > 100 µM and the GI50 [8] was 6.77 µM. For the same molecule, the TGI [8] was 94.1 µM, the GI50 [9] was 1.7 µM and the TGI [9] was 18.1 µM.

`COc1ccc(NC(=O)COC(=O)c2cccc3c(=O)c4ccccc4[nH]c23)cc1` was tested, and the TGI [10] was > 100 µM, the TGI [3] was 37.2 µM and the TGI [4] was 37.1 µM. The TGI [5] was 60.1 µM, the TGI [6] was 30.7 µM and the TGI [7] was 84.8 µM. The TGI [9] was 38.5 µM.

With `O=C(Nc1ccc(Cl)cc1)c1ccc([N+](=O)[O-])o1` the GI50 [1] was 2.35 µM, the TGI [1] was > 30.3 µM and the GI50 [2] was 2.37 µM. It also gave a TGI [2] of 5.41 µM, a GI50 [10] of 1.44 µM and a TGI [10] of 2.98 µM. The GI50 [4] was 2.22 µM, the TGI [4] was 4.9 µM and the GI50 [5] was 1.12 µM. The TGI [5] was 2.68 µM, the GI50 [6] was 2.35 µM and the TGI [6] was 6.38 µM. The GI50 [7] was 1.78 µM, the TGI [7] was 3.79 µM and the GI50 [8] was 3.72 µM. It also gave a TGI [8] of 38.1 µM, a GI50 [9] of 0.642 µM and a TGI [9] of 1.76 µM.

For `O=c1[nH]c(=O)n(C2CC(O)C(CO)O2)cc1C#Cc1cc(C(F)(F)F)cc(C(F)(F)F)c1` (centres undefined), the TGI [2] was > 100 µM, the TGI [10] was > 100 µM and the TGI [3] was > 100 µM. The TGI [4] was > 90.9 µM, the TGI [5] was > 100 µM and the TGI [6] was > 100 µM. For the same molecule, the TGI [7] was > 100 µM, the TGI [8] was > 100 µM and the TGI [9] was > 81.5 µM.

For `COCOCc1cc(OCc2ccccc2)c(OC)cc1Br`, the TGI [2] was > 100 µM, the TGI [3] was > 100 µM and the TGI [4] was > 100 µM. For the same molecule, the TGI [5] was > 100 µM, the TGI [6] was > 100 µM and the TGI [7] was > 100 µM. For the same molecule, the TGI [8] was > 100 µM.

For `COc1cc(C2CC(c3ccc(Nc4ccnc5cc(Cl)ccc45)cc3)=NN2C=O)cc(OC)c1OC` (centres undefined), the GI50 [1] was 11.7 µM, the TGI [1] was > 100 µM and the GI50 [2] was 69.2 µM. For the same molecule, the TGI [2] was > 100 µM, the GI50 [10] was 5.52 µM and the TGI [10] was > 100 µM. The GI50 [4] was 2.75 µM, the TGI [4] was 6.38 µM and the GI50 [5] was 3.49 µM. The TGI [5] was 17.7 µM, the GI50 [6] was 5.87 µM and the TGI [6] was > 100 µM. For the same molecule, the GI50 [7] was 2.22 µM, the TGI [7] was 4.81 µM and the GI50 [8] was 2.56 µM. It also gave a TGI [8] of 8.63 µM.

`O=C(CC/C(CC(=O)c1ccc(Cl)cc1)=N/O)Nc1ccc(Cl)c(Cl)c1` was tested, and the TGI [2] was > 100 µM, the TGI [3] was > 100 µM and the TGI [4] was > 100 µM. For the same molecule, the TGI [5] was > 100 µM, the TGI [6] was > 100 µM and the TGI [7] was > 100 µM. For the same molecule, the TGI [8] was > 100 µM and the TGI [9] was > 100 µM.

Work on `Cc1nc(N)sc1N=Nc1cc(Cl)c([N+](=O)[O-])cc1Cl` yielded a TGI [1] of 53.3 µM, a TGI [2] of 84.6 µM and a TGI [3] of 30 µM. It also gave a TGI [4] of 41.8 µM, a TGI [5] of 35.8 µM and a TGI [6] of 37.7 µM. The TGI [7] was 33.9 µM, the TGI [8] was 21.8 µM and the TGI [9] was 35.5 µM.

`O[C@@H]1CCCN1Cc1cc2cc3c(cc2c2cc(OCc4ccccc4)ccc12)OCO3` was tested, and the GI50 [2] was 5.64 µM, the TGI [2] was 21.2 µM and the GI50 [10] was 1.85 µM. The TGI [10] was 3.76 µM, the GI50 [3] was 2.71 µM and the TGI [3] was 8.83 µM. The GI50 [4] was 3.19 µM, the TGI [4] was 10.4 µM and the GI50 [5] was 2.21 µM. The TGI [5] was 5.75 µM, the GI50 [6] was 3.2 µM and the TGI [6] was 8.95 µM. For the same molecule, the GI50 [7] was 1.78 µM, the TGI [7] was 3.85 µM and the GI50 [8] was 1.77 µM. The TGI [8] was 4.63 µM, the GI50 [9] was 6.08 µM and the TGI [9] was 21.5 µM.

In the case of `O=C(NCC(=O)N1CC[C@H](NC2CCC(O)(c3ccc(-c4ncccn4)cn3)CC2)C1)c1cccc(C(F)(F)F)c1` (some centres undefined), the GI50 [1] was 51.6 µM, the TGI [1] was > 100 µM and the GI50 [2] was > 100 µM. For the same molecule, the TGI [2] was > 100 µM, the GI50 [10] was > 100 µM and the TGI [10] was > 100 µM. For the same molecule, the GI50 [4] was 96.5 µM, the TGI [4] was > 100 µM and the GI50 [5] was > 100 µM. The TGI [5] was > 100 µM, the GI50 [6] was > 100 µM and the TGI [6] was > 100 µM. For the same molecule, the GI50 [7] was > 100 µM, the TGI [7] was > 100 µM and the GI50 [8] was 31 µM. For the same molecule, the TGI [8] was > 100 µM, the GI50 [9] was > 100 µM and the TGI [9] was > 100 µM.

For `C#C[C@@]1(O)CCCC2=CC(=O)C[C@]21C`, the TGI [2] was > 100 µM, the TGI [10] was > 100 µM and the TGI [3] was > 100 µM. The TGI [4] was > 100 µM, the TGI [5] was > 100 µM and the TGI [6] was > 100 µM. The TGI [7] was > 100 µM, the TGI [8] was > 100 µM and the TGI [9] was > 100 µM.
